Read-outs that look alike come from different tables or passages of the source.
What was measured:
Drosophila OR49b = biological target: T1, Drosophila OR49b (Drosophila melanogaster, UniProt Q9V6H2); assay: cell-based; details: for Average response: mean of biological replicates
T1 construct: expressed in transfected cells
T1 sequence (Q9V6H2 1-375): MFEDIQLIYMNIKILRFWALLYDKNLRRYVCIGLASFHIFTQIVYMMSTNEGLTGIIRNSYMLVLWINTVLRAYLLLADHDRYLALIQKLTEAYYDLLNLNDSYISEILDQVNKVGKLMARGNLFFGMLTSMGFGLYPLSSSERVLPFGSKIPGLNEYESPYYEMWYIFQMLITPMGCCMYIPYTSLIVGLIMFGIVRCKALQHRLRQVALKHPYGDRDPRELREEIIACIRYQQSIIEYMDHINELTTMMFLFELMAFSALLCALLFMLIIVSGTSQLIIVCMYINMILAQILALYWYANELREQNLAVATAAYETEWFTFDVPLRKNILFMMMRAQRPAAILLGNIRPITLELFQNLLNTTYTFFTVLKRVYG
T1 sequence (Q9VNB5 1-486 partner): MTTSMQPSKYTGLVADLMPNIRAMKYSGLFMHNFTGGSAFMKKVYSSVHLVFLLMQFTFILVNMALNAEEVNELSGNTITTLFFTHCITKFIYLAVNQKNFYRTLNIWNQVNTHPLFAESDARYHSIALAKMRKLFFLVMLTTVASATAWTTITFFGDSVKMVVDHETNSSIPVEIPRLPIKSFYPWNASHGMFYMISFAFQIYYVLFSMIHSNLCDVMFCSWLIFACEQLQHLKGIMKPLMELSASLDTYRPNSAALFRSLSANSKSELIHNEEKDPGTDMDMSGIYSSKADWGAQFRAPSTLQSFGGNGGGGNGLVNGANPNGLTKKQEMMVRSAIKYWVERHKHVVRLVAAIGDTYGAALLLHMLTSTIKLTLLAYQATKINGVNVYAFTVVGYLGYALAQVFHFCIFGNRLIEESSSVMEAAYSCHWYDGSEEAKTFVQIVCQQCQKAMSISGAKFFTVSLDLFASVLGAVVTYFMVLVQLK
Method in brief: (§1)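 HEK293 lines stably expressing each Drosophila OR with GCaMP6, doxycycline-induced (1 μg/mL) 48 or 72 h. Fluorescence recorded 5 s baseline then 30 s after VOC injection at pH 7.3; ΔF=(FMAX−F0)/F0, normalized to 50 µM VUAA1 response per line, triplicate wells averaged; concentration series 0.01–100 μM.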

Drosophila OR98a = biological target: T2, Drosophila OR98a (Drosophila melanogaster, UniProt Q9VAZ3); assay: Calcium ion fluorescence (GCaMP6) assay, OR98a stable HEK293 cell line; format: cell-based; details: for Average response: average of biological replicates, fraction of VUAA1 response
T2 construct: expressed in transfected cells
T2 sequence (Q9VAZ3 1-397): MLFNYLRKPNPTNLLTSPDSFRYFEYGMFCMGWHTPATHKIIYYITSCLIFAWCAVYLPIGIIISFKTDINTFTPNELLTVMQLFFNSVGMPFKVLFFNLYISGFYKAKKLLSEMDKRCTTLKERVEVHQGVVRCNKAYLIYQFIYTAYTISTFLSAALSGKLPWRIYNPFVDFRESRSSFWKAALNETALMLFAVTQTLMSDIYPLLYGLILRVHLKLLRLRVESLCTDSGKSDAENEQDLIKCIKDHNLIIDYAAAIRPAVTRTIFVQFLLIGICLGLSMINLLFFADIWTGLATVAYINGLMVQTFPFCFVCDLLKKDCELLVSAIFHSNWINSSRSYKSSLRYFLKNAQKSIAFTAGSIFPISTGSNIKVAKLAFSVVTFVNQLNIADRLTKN
T2 sequence (Q9VNB5 1-486 partner): T1 sequence (Q9VNB5 1-486 partner)
Method in brief: as §1

[1] = OR49b cell line, odorant cc. 1 µM
[2] = OR49b cell line, odorant cc. 10 µM
[3] = OR49b cell line, odorant cc. 100 µM
[4] = ligand concentration 1 (unit not given), 0.05 threshold, values below shown as 0
[5] = ligand concentration 10 (unit not given), 0.05 threshold, values below shown as 0
[6] = ligand concentration 100 (unit not given), 0.05 threshold, values below shown as 0
[7] = HEK293, read-out: Average response
[8] = HEK293, read-out: OR98a Average response (VUAA1-normalized)
[9] = concentration 1, normalized fluorescence change, values below 0.05 threshold given as 0
[10] = concentration 10, normalized fluorescence change, values below 0.05 threshold given as 0
[11] = concentration 100, normalized fluorescence change, values below 0.05 threshold given as 0

| Compound | Average response (Drosophila OR49b; [1]) | Average response (Drosophila OR49b; [2]) | Average response (Drosophila OR49b; [3]) | DF norm AVERAGE OR49b (Drosophila OR49b; [4]) | DF norm AVERAGE OR49b (Drosophila OR49b; [5]) | DF norm AVERAGE OR49b (Drosophila OR49b; [6]) | activation at 1 µM (Drosophila OR98a; [7]) [%] | activation at 10 µM (Drosophila OR98a; [7]) [%] | activation at 100 µM (Drosophila OR98a; [7]) [%] | DF norm AVERAGE OR98a (Drosophila OR98a; [4]) | DF norm AVERAGE OR98a (Drosophila OR98a; [5]) | DF norm AVERAGE OR98a (Drosophila OR98a; [6]) | OR49b response (VUAA1-normalized response) (Drosophila OR49b; VOC concentration 1 μM) | OR49b response (VUAA1-normalized response) (Drosophila OR49b; VOC concentration 10 μM) | OR49b response (VUAA1-normalized response) (Drosophila OR49b; VOC concentration 100 μM) | OR98a response (VUAA1-normalized response) (Drosophila OR98a; VOC concentration 1 μM) | OR98a response (VUAA1-normalized response) (Drosophila OR98a; VOC concentration 10 μM) | OR98a response (VUAA1-normalized response) (Drosophila OR98a; VOC concentration 100 μM) | Average response (Drosophila OR98a; cc. 1 µM, OR98a cell line) | Average response (Drosophila OR98a; cc. 10 µM, OR98a cell line) | other results |
| --- | --- | --- | --- | --- | --- | --- | --- | --- | --- | --- | --- | --- | --- | --- | --- | --- | --- | --- | --- | --- | --- |
| CC/C=C\CCOC(C)=O [z3-hexenyl acetate] | 0.0379 | 0.0171 | 0.04 | 0 | 0 | 0 | 0 | 1.43 | 10 | 0 | 0 | 0.1048 |  |  |  |  |  |  |  |  | activation at 1 µM (Drosophila OR98a; [8]): 0%; activation at 10 µM (Drosophila OR98a; [8]): 1%; activation at 100 µM (Drosophila OR98a; [8]): 10% |
| CC1=CCC23CC1C(C)(C)C2CCC3C (stereo not drawn) [α-funebrene] | 0.00 | 0.00 | 0.00 | 0 | 0 | 0 | 0 | 9 | 5 | 0 | 0.08582 | 0.05199 |  |  |  |  |  |  |  |  | OR49b response (VUAA1-normalized) at 1 μM (Drosophila OR49b; OR49b cell line, VOC concentration 1 μM): 0.00; OR49b response (VUAA1-normalized) at 10 μM (Drosophila OR49b; OR49b cell line, VOC concentration 10 μM): 0.00; OR49b response (VUAA1-normalized) at 100 μM (Drosophila OR49b; OR49b cell line, VOC concentration 100 μM): 0.00; OR98a response (VUAA1-normalized) at 1 μM (Drosophila OR98a; OR98a cell line, VOC concentration 1 μM): 0.00; OR98a response (VUAA1-normalized) at 10 μM (Drosophila OR98a; OR98a cell line, VOC concentration 10 μM): 0.09; OR98a response (VUAA1-normalized) at 100 μM (Drosophila OR98a; OR98a cell line, VOC concentration 100 μM): 0.05 |
| (+)-beta-cedrene | 0.00 | 0.0336 | 0.00 |  |  |  |  |  |  |  |  |  | 0.00 | 0.00 | 0.00 | 0.0855 | 0.06 | 0.06 | 0.0855 | 0.06 | DF norm AVERAGE OR49b (Drosophila OR49b): 0; Average response (Drosophila OR98a; cc. 100 µM, OR98a cell line): 0.06; DF norm AVERAGE OR98a (Drosophila OR98a; [9]): 0.08554; DF norm AVERAGE OR98a (Drosophila OR98a; [10]): 0.05985; DF norm AVERAGE OR98a (Drosophila OR98a; [11]): 0.06078 |
| (-)-alpha-cedrene | 0.00 | 0.0843 | 0.00 |  |  |  |  |  |  |  |  |  | 0.00 | 0.0843 | 0.00 | 0.00 | 0.00 | 0.00 | 0.00 | 0.0421 | Average response (Drosophila OR98a; cc. 100 µM, OR98a cell line): 0.0341; DF norm AVERAGE OR98a (Drosophila OR98a; [9]): 0; DF norm AVERAGE OR98a (Drosophila OR98a; [10]): 0; DF norm AVERAGE OR98a (Drosophila OR98a; [11]): 0 |
